Results as given in the supplement of paper PMC10307832.

Legend:
Test in all cases: relative viability (nuclei count vs DMSO), 5 days (fraction); higher = more cells survive
[1] = compound: CCc1c2c(nc3ccc(OC(=O)N4CCC(N5CCCCC5)CC4)cc13)-c1cc3c(c(=O)n1C2)COC(=O)[C@]3(O)CC [Irinotecan] + CS(=O)(=O)N1CCN(Cc2cc3nc(-c4cccc5[nH]ncc45)nc(N4CCOCC4)c3s2)CC1 [Pictilisib] (partner 1 µM)
Procedure, shortened: (§1)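 Lung cancer cell lines were seeded in 1536-well plates and dosed by pin tool the next day, with either a single drug or a fixed anchor-drug dose combined with five library-drug doses (not always all listed) spaced in √10 steps. Five days later, one step fixed the cells and stained their nuclei (final 0.05% Triton X-100, 1% formaldehyde, 1 ug/ml Hoechst), and nuclei were counted on 4× images. Relative viability is the nuclei count in treated wells divided by the count in vehicle wells, and each value is the median of duplicate plates.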

[2] = compound: Cn1cc(-c2cnc3ccc4ccc(CS(=O)(=O)NCc5ccccn5)cc4c(=O)c3c2)cn1 [MK-8033] + CS(=O)(=O)N1CCN(Cc2cc3nc(-c4cccc5[nH]ncc45)nc(N4CCOCC4)c3s2)CC1 [Pictilisib] (partner 1 µM)
Procedure, shortened: as §1

[3] = compound: CC[C@@H](C)CNCC(=O)N1CCC2=C([C@@H]1COC3=CC=CC(=C3)C)C=CS2 [RU-SKI 43] + CS(=O)(=O)N1CCN(Cc2cc3nc(-c4cccc5[nH]ncc45)nc(N4CCOCC4)c3s2)CC1 [Pictilisib] (partner 1 µM)
Procedure, shortened: as §1

[4] = compound: CC[C@@H](C)CNCC(=O)N1CCC2=C([C@@H]1COC3=CC=CC(=C3)C)C=CS2 [RU-SKI 43] + Nc1ncn([C@H]2C[C@H](O)[C@@H](CO)O2)c(=O)n1 [Decitabine] (partner 2 µM)
Procedure, shortened: as §1

Row | Cell Line | relative viability ([1]; first compound 0.6325 µM) | relative viability ([1]; first compound 2 µM) | relative viability ([1]; first compound 6.325 µM) | relative viability ([1]; first compound 20 µM) | relative viability ([2]; first compound 0.02 µM) | relative viability ([2]; first compound 0.06325 µM) | relative viability ([2]; first compound 0.2 µM) | relative viability ([2]; first compound 0.6325 µM) | relative viability ([2]; first compound 2 µM) | relative viability ([3]; first compound 0.1 µM) | relative viability ([3]; first compound 0.3162 µM) | relative viability ([3]; first compound 1 µM) | relative viability ([3]; first compound 3.162 µM) | relative viability ([3]; first compound 10 µM) | relative viability ([4]; first compound 0.1 µM) | relative viability ([4]; first compound 0.3162 µM) | relative viability ([4]; first compound 1 µM) | relative viability ([4]; first compound 3.162 µM) | relative viability ([4]; first compound 10 µM)
1 | EMC-BAC-2 | 0.37 | 0.373 | 0.234 | 0.223 | 0.59 | 0.412 | 0.478 | 0.502 | 0.483 | 0.516 | 0.518 | 0.561 | 0.565 | 0.511 | 0.984 | 0.965 | 1.02 | 0.997 | 1.03
2 | NCI-H647 | – | 0.65 | 0.219 | 0.208 | 0.444 | 0.421 | 0.398 | 0.41 | 0.471 | 0.392 | – | 0.547 | 0.428 | 0.412 | 0.383 | 0.404 | 0.393 | 0.43 | 0.353
3 | NCI-H1944 | 0.235 | 0.251 | 0.181 | 0.214 | 0.35 | – | 0.347 | 0.346 | 0.34 | 0.336 | 0.317 | 0.372 | 0.353 | 0.351 | 0.449 | 0.4 | 0.423 | 0.473 | 0.442
4 | PC-3 [JPC-3] | 0.309 | 0.535 | 0.315 | 0.344 | 0.666 | – | 0.655 | 0.56 | 0.762 | 0.768 | 0.69 | 0.805 | 0.816 | 0.683 | 0.789 | 0.894 | 0.804 | 0.852 | 0.749
5 | SK-LU-1 | 0.444 | 0.447 | 0.322 | 0.247 | 0.658 | 0.499 | 0.449 | 0.54 | 0.622 | 0.556 | 0.578 | 0.634 | 0.678 | 0.554 | 0.571 | 0.684 | 0.612 | 0.593 | 0.535
6 | NCI-H1975 | 0.339 | 0.316 | 0.204 | 0.154 | 0.302 | 0.266 | 0.269 | 0.307 | 0.315 | 0.293 | 0.289 | 0.294 | 0.273 | 0.254 | 0.346 | 0.377 | 0.439 | 0.381 | 0.276
7 | HARA | 0.189 | 0.104 | 0.161 | 0.0982 | 0.445 | 0.395 | 0.335 | 0.382 | 0.419 | 0.524 | 0.512 | 0.435 | 0.458 | 0.318 | 0.497 | 0.682 | 0.566 | 0.46 | 0.47
8 | H3255 | 0.302 | 0.272 | 0.222 | 0.23 | 0.558 | 0.299 | 0.48 | 0.577 | 0.441 | 0.435 | 0.412 | 0.512 | 0.494 | 0.455 | 0.564 | 0.697 | 0.683 | 0.619 | 0.579
9 | NCI-H727 | 0.277 | 0.353 | 0.35 | 0.289 | 0.52 | 0.451 | 0.354 | 0.5 | 0.273 | 0.31 | 0.305 | 0.438 | 0.497 | 0.377 | – | 0.805 | 0.882 | 0.834 | 0.972
10 | EKVX | 0.503 | 0.421 | 0.224 | 0.163 | 0.433 | 0.409 | 0.442 | 0.438 | 0.476 | 0.395 | 0.422 | 0.392 | 0.482 | 0.386 | 0.303 | 0.254 | 0.146 | 0.342 | 0.365
11 | NCI-H1666 | 0.559 | 0.338 | 0.409 | 0.311 | 0.365 | 0.31 | 0.459 | 0.422 | 0.481 | 0.407 | 0.481 | 0.377 | 0.331 | 0.2 | 0.739 | 0.794 | 0.721 | 0.643 | 0.665
12 | NCI-H1915 | 0.341 | 0.261 | 0.185 | 0.195 | 0.969 | 0.785 | 0.914 | 1 | 0.861 | 1.02 | 0.954 | 1.03 | 0.961 | 0.927 | 0.272 | 0.257 | 0.285 | 0.25 | 0.255
13 | HCC-366 | 0.181 | 0.142 | 0.0733 | 0.0469 | 0.151 | 0.0933 | 0.228 | 0.138 | 0.142 | 0.134 | 0.196 | 0.175 | 0.221 | 0.137 | 0.3 | 0.399 | 0.328 | 0.354 | 0.352
14 | EPLC-272H | 0.212 | 0.305 | 0.188 | 0.195 | 0.3 | – | 0.298 | 0.303 | 0.294 | 0.316 | 0.315 | 0.404 | – | 0.291 | 0.358 | 0.369 | 0.324 | 0.365 | 0.353
15 | NCI-H1792 | 0.281 | 0.199 | 0.106 | 0.11 | 0.256 | 0.188 | 0.346 | 0.269 | 0.212 | 0.284 | 0.351 | 0.277 | 0.281 | 0.304 | 0.392 | 0.667 | 0.682 | 0.728 | 0.561
16 | RERF-LC-KJ | 0.516 | 0.422 | 0.455 | 0.418 | 0.508 | 0.417 | 0.519 | 0.501 | 0.533 | 0.535 | 0.529 | 0.61 | 0.548 | 0.476 | 0.782 | 0.832 | 0.69 | 0.681 | 0.58
